Experimental data as given in patent US20170042780A1, “DENTIFRICE COMPOSITION WITH GUM BLEEDING RELIEF EFFICACY” (COLGATE-PALMOLIVE COMPANY, priority 2015, published 2017).

System: experimental animal plasma
Experiment: In-vitro Prothrombin Time (PT) Test
Format: biochemical
Settings: for Prothrombin Time: coagulant ingredient 1 weight % in water, 0.05 mL sample + 0.1 mL plasma, 37° C., thromboplastin added, mean of 10 repeats
Procedure: An In-vitro Prothrombin Time (PT) Test has been designed to test the coagulant efficacy (see Luz, L. et at., International Journal of Biological Macromolecules, 58 (2013), p. 31-36). […] The experimental methodology used was: […] When testing the “Toothpastes” in Table 2, below, a toothpaste slurry was prepared by mixing 1 part of the toothpaste under test with 2 parts DI water (all parts being parts by weight); then the supernatant was obtained by centrifuging the slurry for 20 mins at 8000 rpm. 0.1 mL of experimental animal plasma was placed in each testing tube (animal blood samples used in the experiment were waste products, and the animals were otherwise used for food). 0.05 mL of the test samples (0.05 mL of DI water or saline solution in control group) were added to separate tubes and mixed with the plasma. The mixtures were then heated in a water bath at 37° C. for 3 min, then 0.2 mL of thromboplastin (which had been preheated to 37° C.) was added to each testing tube and the contents mixed. A stopwatch was started immediately upon adding the thromboplastin to record the coagulation time (Prothrombin Time).

SMILES	Prothrombin Time [s]	clotting time compared with the controls (DI water and saline solution) (ingredient 1 weight % in water)	difference in clotting time between tranexamic acid and 4-(aminomethyl) benzoic acid (ingredients 1 weight % in water)
NCc1ccc(C(=O)O)cc1 [4-(aminomethyl)benzoic acid]	11.14	significantly lower clotting time than the controls	No significant difference
NC[C@H]1CC[C@H](C(=O)O)CC1 [Tranexamic acid, tranexamic acid, reference compound]	11.66		
